Key:
[1] = Ocular PK (distribution) study in Dutch-belted rabbits, topical ocular dosing, compound 1003 measured by LC/MS/MS; format: in vivo; conditions: topical ocular administration of compounds 1001 and 1002 to rabbits, compared with each other
Experimental: The ocular distribution of compound 1001,
[drawing 220] in the ocular tissues of Dutch-belted rabbits when administered topically to the surface of the eye was evaluated.
Healthy, young adult Dutch-belted rabbits (male/female; at least 1.5 kg) were acclimated for at least 7 days prior to initiation of the study. Prior to the initiation of the study, the eyes of the rabbits were examined to ensure that the eyes were free of any defects that may affect the integrity of the study. Examinations were performed by a qualified observer.
Animals were dosed via the topical ocular route using a pipettor system which delivered a 30 μL dose to each eye. Each animal was dosed at T=0. The right eye received a dose concentration of 300 μg/mL of compound 1001 and the left eye received a dose concentration of 300 μg/mL of compound 1002. At the intervals noted in Table 3, the animals were sacrificed. […]
Spiking solutions for standards were prepared by diluting compound 1003 as its sodium salt (e.g., M is Na) (dissolved in ethanol) in ethanol spanning the concentration range of 0.100 to 4000 ng/mL of compound 1003. Two standard curves were extracted and subsequently analyzed one before and one after the samples. […]
Compound 1003 in the homogenized/extracted/dried/reconstituted samples was analyzed by LC/MS/MS using D4-PGE2 as the internal standard. […]

[2] = Chemical stability study, HPLC purity (% area) over time; format: physicochemical; conditions: for % Area Compound / % Area Impurity: 500 μg/mL ophthalmic formulation, pH 5.5, 5° C.; for time the reference solution was stable: reference solution in water/absolute ethanol (90/10 v/v), stored at 5° C.±3° C., protected from light
Experimental: The chemical stability of compounds 1001 and 1002 was measured via HPLC analysis of the purity of these compounds over time. The purity assay of active components using percent area (% area) and impurities reported as percent area (% area) were measured by HPLC using the following conditions:
A sample diluent was prepared with water/absolute ethanol (90/10 v/v).
Reference solutions of compounds 1001 and 1002 were prepared by weighing approximately 10 mg (±2 mg) of a 1 mg/mL stock solution of compound 1001 or 1002 into a 1 mL amber volumetric flask. Approximately 0.5 mL of sample diluent was added and the solution swirled to mix. The sample was diluted to volume with sample diluent and mixed well. The reference solution for compound 1001 was stable for up to 7 days stored at 5° C.±3° C., protected from light. The reference solution for compound 1002 was stable for up to 3 days stored at 5° C.±3° C., protected from light.
Ophthalmic formulations of compounds 1001 (0.994 g of a 52 mg/mL solution in propylene glycol) or compound 1002 (1.034 g of a 50 mg/mL solution in propylene glycol) were prepared at 500 μg/mL dose strength in potassium phosphate buffer (25 mM, pH 5.5, 0.34 g) with 0.2 M sodium hydroxide solution (q.s.), sodium chloride (0.327 g), polysorbate 80 (0.5% w/v), and purified water (q.s. to 100). Sample solutions of compounds 1001 and 1002 were each prepared by accurately weighing approximately 20 mg of the 500 μg/mL compound formulation into a 1 mL amber volumetric flask. Approximately 0.5 mL of sample diluent was added and the solution gently swirled to mix. The solution was diluted to volume with sample diluent and mixed well.
The following equation was used to calculate the compound 1001 or compound 1002 purity assay (% area) in each sample: Analogue Content(% area)=(Area of analog/Total area of all peaks≧0.10% area)×100.
Impurities≧0.10% area were integrated and reported as % area to 2 decimal places.
Tables 5 and 6 show the results of the chemical stability study of compounds 1001 and 1002, respectively, over the course of 8 weeks at 5° C.

[3] = system: signs and symptoms of dry eye; assay: Study of compound 1001 in dry eye: multi-center, double-masked, randomized, placebo-controlled; format: in vivo, human patients; conditions: for change in ocular discomfort as compared to vehicle (ORA Ocular Discomfort Scale), improvement: dose C (275.6 μg/mL)
From the text: The objective of this study was to compare the efficacy of compound 1001 to placebo (vehicle minus active) for the treatment of the signs and symptoms of dry eye, in a multi-center, double-masked, randomized, placebo-controlled study in which 100 human patients were equally randomized into one of three active treatment groups or placebo and all treatment groups were exposed to identical humidity, temperature, and wind conditions which exacerbated the symptoms of dry eye. During a 14 day study run-in period prior to randomization (e.g., day −14 to day 0), all patients received placebo bilaterally two times per day (BID). At the time of treatment randomization (e.g., day 0), patients were exposed to 90 minutes of identical humidity, temperature, and wind conditions which exacerbated the symptoms of dry eye after which patients were stratified based on the following criterion: Central corneal staining post-exposure<2.5 or >3.0. Patients eligible to be randomized received one of the following treatments to be administered as approximately a 30 μL drop to both eyes BID: 1) Compound 1001 at dose A (26.4 μg/mL) Ophthalmic Solution; 2) Compound 1001 at dose B (87.8 μg/mL) Ophthalmic Solution; 3) Compound 1001 at dose C (275.6 μg/mL) Ophthalmic Solution; 4) Placebo Ophthalmic Solution (Vehicle minus active). Brief Summary of Visit Schedule. […] The primary endpoint of mean ocular discomfort in the conditions for exacerbating the symptoms of dry eye using the ORA Ocular Discomfort Scale (during the 90 minute exposure) was summarized statistically (m, mean, standard deviation, median, min and max), and analyzed with 1-sided t-tests comparing the best dose to placebo with a p-value<0.025 considered significant. […] Ocular discomfort during this exposure period was measured using the ORA Ocular Discomfort Scale with the ocular discomfort score being the average of all time points during exposure. Ocular discomfort was measured again at visit 5 (e.g., day 29). […] Symptoms of grittiness, dryness were measured on environmental day 28 on a visual analog scale of 0-5.

levels of compound 1003 observed in the aqueous humor, the vitreous and the cornea (FIG. 1) [1]	% Area Compound ([2]; 2 weeks)	% Area Impurity ([2]; 2 weeks)	% Area Compound ([2]; 4 weeks)	% Area Impurity ([2]; 4 weeks)	chemical stability compared (percent purity over time) ([2]; 8 weeks at 5° C., compound 1001 versus compound 1002)	% Area Compound ([2]; 8 weeks)	% Area Impurity ([2]; 8 weeks)	% Area Compound ([2]; Initial)	% Area Impurity ([2]; Initial)	time the reference solution was stable [2]	% Area Compound ([2]; 1 week)	% Area Impurity ([2]; 1 week)	Structure (SMILES)	dryness, visual analog scale of 0-5, change as compared to vehicle ([3]; day 28, dose C (275.6 μg/mL) topically, FIG. 4)	change in ocular discomfort as compared to vehicle (ORA Ocular Discomfort Scale), improvement ([3]; day 28, approx. 30 μL drop to both eyes BID, FIG. 2)	change in ocular discomfort as compared to vehicle (ORA Ocular Discomfort Scale), improvement ([3]; day 29, 24 hours after last treatment, FIG. 3)
comparable levels	99.03 % Area	0.97 % Area	99.39 % Area	0.61 % Area	better chemical stability	99.31 % Area	0.69 % Area	99.55 % Area	0.45 % Area	up to 7 days	–	–	C#CC[C@@H](O)/C=C/C=C/C#C[C@@H](O)CCCC(=O)OC(C)C [Compound 1001]	significant change	~27%	~36%
comparable levels	97.46 % Area	2.55 % Area	96.54 % Area	3.46 % Area	–	94.95 % Area	5.05 % Area	98.29 % Area	1.71 % Area	up to 3 days	97.58 % Area	2.43 % Area	C#CC[C@@H](O)/C=C/C=C/C#C[C@@H](O)CCCC(=O)OC [Compound 1002]	–	–	–
